Data reported in patent publication US20240301409A1, “Chemically Modified Small Activating RNA” (RACTIGEN THERAPEUTICS, priority 2021, published 2024).

Tests used:
J82 cells = assay: Apoptosis detection (FITC Annexin V, flow cytometry) in J82 cells with or without PBMC co-culture; format: cell-based, human
Experimental: J82 cells were transfected with RAG1-40-31 and RAG1-40-53 at final concentrations of 0.1, 1, 10 and 25 nM, and 24 hours after transfection, fresh medium was replaced and a certain ratio of PBMC cells was added (J82 cells:PBMC cells=1:4). The cells were co-cultured for 48 hours. After co-culture, cells were collected and cell apoptosis was detected by flow cytometry. FIGS. 13A-13B show the relative proliferation proportion of J82 cells after the combined treatment with chemically modified saRNA RAG1-40-31 and Mitomycin C. […] Control and DMSO are the blank transfection control and the solvent for dilution control, respectively.
J82 cells were transfected with RAG1-40-31 at 0.1, 1, 10 and 25 nM. After 24 hours of transfection, the cells were refreshed with PBMC cell-containing fresh medium. The PBMC and J82 cells were co-cultured for 48 hours, and then the supernatant was discarded and the cells were collected. 500 μL PBS was added to each well for washing and then discarded, before the addition of 100 μL trypsin/well. 900 μL medium was added to stop digestion and the content was transferred to a 1.5 mL centrifuge tube. All the cells were collected through centrifugation (400 rcf, 5 min) and counted (1˜2×10^5 cells/100 μL Binding Buffer). 100 μL of 1× Binding Buffer (B&D Systems, 51-66121E), 5 μL FITC Annexin V (B&D Systems, 51-65874X) and 5 μL PI (B&D Systems, 51-66211E) were added before incubation in dark at room temperature for 15 minutes. After the incubation, 100 μL of 1× binding buffer was added before blending and transferring to a 96-well plate for analysis with flow cytometer (Beckman Coulter). The sample should be analyzed within 1 hour.
In order to verify this hypothesis, in this example, RAG1-40-31 duplex was selected to transfect J82 cells, and after 24 hours of transfection, the cells were refreshed with fresh medium and PBMC cells at a certain ratio (J82 cells:PBMC cells=1:4) were added, or cells free of PBMC were replaced as control. After 48 hours of co-culture, FITC Annexin V kit was used to detect the apoptosis of tumor cells on a flow cytometer. […] In PBMC-free cell culture, for RAG1-40-31 treatments at 0.1, 1, 10 and 25 nM, the percentages of cells in early apoptosis were 2.3%, 2.6%, 9.4% and 15.5%, respectively, and the percentages of cells in late apoptosis were 5.3%, 5.2%, 6.7% and 9.1%, respectively. In co-culture with PBMC cells, for RAG1-40-31 treatments at 0.1, 1, 10 and 25 nM, the percentages of cells in early apoptosis were 2.0%, 4.5%, 31.5% and 49.3%, respectively, and the percentages of cells in late apoptosis were 5.6%, 7.3%, 6.3% and 5.8%, respectively.

[1] = system: Rag1-40 target sequence in the 3′ UTR of firefly luciferase, COS-1 cells
[2] = co-culture with PBMC cells (1:4) 48 hours, 0.1 nM
[3] = co-culture with PBMC cells (1:4) 48 hours, 1 nM
[4] = co-culture with PBMC cells (1:4) 48 hours, 10 nM
[5] = co-culture with PBMC cells (1:4) 48 hours, 25 nM

RAG1-40-31: saRNA duplex: sense fCfCAACUCAUUCUCCAAG*U*C (SEQ ID NO 16); antisense U*A*fCfUfUGGAGAAfUGAGfUfUGG*fC*A (SEQ ID NO 12) (sense CCAACUCAUUCUCCAAGUC; antisense UACUUGGAGAAUGAGUUGGCA; 2'-F and phosphorothioate modifications; modified_base (1)..(2) (1,2)=2′-fluoro; modified_base (17)..(19) (17,18,19)=phosphorothioate (PS) backbone modification; modified_base (2)..(21) (2,3,19,20,21)=phosphorothioate (PS) backbone modification; modified_base (3)..(20) (3,4,5,12,16,17,20)=2′-fluoro)
percentage of cells in early apoptosis (J82 cells; PBMC-free cell culture, 0.1 nM): 2.3%
percentage of cells in late apoptosis (J82 cells; PBMC-free cell culture, 0.1 nM): 5.3%
percentage of cells in early apoptosis (J82 cells; PBMC-free cell culture, 1 nM): 2.6%
percentage of cells in late apoptosis (J82 cells; PBMC-free cell culture, 1 nM): 5.2%
percentage of cells in early apoptosis (J82 cells; PBMC-free cell culture, 10 nM): 9.4%
percentage of cells in late apoptosis (J82 cells; PBMC-free cell culture, 10 nM): 6.7%
percentage of cells in early apoptosis (J82 cells; PBMC-free cell culture, 25 nM): 15.5%
percentage of cells in late apoptosis (J82 cells; PBMC-free cell culture, 25 nM): 9.1%
percentage of cells in early apoptosis (J82 cells; [2]): 2.0%
percentage of cells in late apoptosis (J82 cells; [2]): 5.6%
percentage of cells in early apoptosis (J82 cells; [3]): 4.5%
percentage of cells in late apoptosis (J82 cells; [3]): 7.3%
percentage of cells in early apoptosis (J82 cells; [4]): 31.5%
percentage of cells in late apoptosis (J82 cells; [4]): 6.3%
percentage of cells in early apoptosis (J82 cells; [5]): 49.3%
percentage of cells in late apoptosis (J82 cells; [5]): 5.8%
off-target effect compared to unmodified Rag1-40, in words [1]: mitigated or similar off-target effects
